In patent US20180258381A1, “BIO-LAMINA BIOREACTORS AND METHODS OF MAKING AND USING THE SAME” (Oregon State University, priority 2015, published 2018):

What was measured:
[1] = tested on: M. trichosporium OB3b culture; assay: CP exposure of culture immobilized in alginate beads, sequencing batch reactors; type: cell-based; details: for MeOH Accumulation Efficiency (MeOH accumulation/CH4 consumed): initial 24 hours of incubation with CH4
Description: In some embodiments, M. trichosporium OB3b culture was immobilized in alginate beads. M. trichosporium OB3b culture expressing sMMO was harvested and suspended to a final density of 10 g cell protein/L in 2% alginate. The alginate/cell mixture was extruded through a syringe needle into 100 mM CaCl2 to crosslink the alginate matrix, forming stable beads. Beads were rinsed with dH2O and re-suspended in 1/10 strength (dilute) growth media. M. trichosporium OB3b culture prepared this way is ideal for experimental manipulation such as CH4 or MeOH rate determinations after inhibitor exposure because beads can be quickly rinsed to remove trace inhibitor. OB3b culture immobilized in alginate in this way maintained activity for >7 days.
A chemostat grown, sMMO expressing, M. trichosporium OB3b culture was immobilized in alginate beads, and exposed to CP for 2, 6, and 18 hours in the absence of CH4. After inhibition, the consumption of CH4 and accumulation of MeOH was monitored in the presence and absence of 20 mM formate in sequencing batch reactors (FIGS. 37A-37C). Alginate beads were rinsed, at 24 hour intervals, before suspension in fresh media plus CH4. There was no significant difference: i) in the rate of methane consumption in the treatments that were exposed to CP for 2, 6 or 18 h (p>0.5, 30-80 μmol CH4 consumed/d, Table 2); ii) in the efficiency of MeOH accumulation in any of the treatments (Table 2); and, in the effect of formate on MeOH accumulation (P>0.18) for any exposure time, probably due to lack of complete MDH inhibition (Table 3). It was also observed that MeOH accumulated to a greater degree during days 2 and 3 in treatments after 6 or 18 hours of CP exposure.

OB3b expressing sMMO = assay: Packed bed reactor with cyclopropane inhibitor; type: cell-based, Methylosinus trichosporium (OB3b)
Description: A Packed Bed Reactor was used to evaluate the conversion of methane to methanol by cell of OB3b expressing sMMO. […] Cyclopropanol is expected to be produced via oxidation of cyclopropane by MMO in this example.
A continuous flow PBR was constructed using a glass HPLC column with the dimensions 2.5 cm ID and 13 cm packing height. Methane, oxygen, and the inhibitor feed solutions dissolved in media were contained within the two 100 mL syringes. The column was packed with alginate beads with sMMO-expressing OB3b formed in-situ under aseptic conditions Immobilized culture performance was evaluated in the PBR over a range of flow rates to achieve reactor residence times (τ) ranging from 0.2, 0.3, 0.5, and 8.5 hours. Two separate experiments were carried out, one for methane transformation (conversion) without the cyclopropane inhibitor and the other with the inhibitor (FIG. 26). For the methane utilization studies, the influent solution was developed by adding 7 mL methane and 21 mL oxygen to the 100 ml syringes. For the inhibition studies 1 ml of cyclopropane was added. After equilibration for 20 minutes, the gases were ejected from the syringes, and the syringes connected to the column inlet.
An integrated form of the Monod equation was used to analyze the results from the PBR experiment. It relates substrate conversion across a packed bed reactor, X, to the residence time, τ (min), and initial substrate concentration So (mg/L).
The solids lines in FIG. 26 were computed with the integrated Monod model using the Ks and kmax obtained from the batch data. The simulation used an effectiveness factor (η) of 1 indicating no loss in cell activity. Good fit was obtained between the simple analytical solution, equation above, and the experimental observations for the uninhibited case. The maximum conversion was 95±0.8% at a τ of 8 hours. For the cyclopropane inhibition embodiment, the same kmax as non-inhibited case was used, but with a Ks four times the uninhibited case to investigate the plausibility of competitive inhibition.

Compound: C1CC1 [CP, cyclopropane]
- Rates of MeOH consumption, Post Exposure ([1]; CP exposure 2 h): 0.4 (0.0) μmol/h/mg protein
- MeOH Accumulation Efficiency (MeOH accumulation/CH4 consumed) ([1]; CP exposure 2 h): 19 (4) %
- Rates of MeOH consumption, Post Exposure ([1]; CP exposure 6 h): 0.6 (0.1) μmol/h/mg protein
- MeOH Accumulation Efficiency (MeOH accumulation/CH4 consumed) ([1]; CP exposure 6 h): 43 (1) %
- Rates of MeOH consumption, Post Exposure ([1]; CP exposure 18 h): 0.3 (0.1) μmol/h/mg protein
- MeOH Accumulation Efficiency (MeOH accumulation/CH4 consumed) ([1]; CP exposure 18 h): 13 (1) %
- rate of methane consumption ([1]; treatments exposed to CP for 2, 6 or 18 h): 30-80 μmol CH4 consumed/d
- effect on methane transformation (OB3b expressing sMMO; cyclopropane-amended column vs uninhibited): Inhibition of methane transformation was observed
- Methane conversion (OB3b expressing sMMO; residence time 4 hours): 68±11%
- methanol production selectivity (percentage of methane converted to methanol) (OB3b expressing sMMO; residence time 4 hours): 102±39%
- Methane conversion (OB3b expressing sMMO; residence time 8 hours): 95±1%
- methanol production selectivity (percentage of methane converted to methanol) (OB3b expressing sMMO; residence time 8 hours): 91±32%
